Results as given in patent US11878972B2, “Treatment of neurological disorders” (TORQUR AG, priority 2016, dated 2024).

Legend:
[1] = system: pPKB S473 in A2058 cells; assay: In-cell Western blot, pPKB S473; assay type: cell-based; conditions: treated for 1 hour, normalized to α-tubulin
Procedure: (§1) Cells are fixed with 4% paraformaldehyde for 30 minutes at room temperature, washed 2 times with 1% BSA in PBS, permeabilized with 0.1% Triton X-100 in PBS/1% BSA for 30 minutes at room temperature and blocked with 5% goat serum in PBS/1% BSA/0.1% Triton X-100 for 30 minutes at room temperature. […] Cells are washed 3 times 5 minutes with PBS/1% BSA/0.1% triton and plate scanned with the Odyssey Infrared Scanning system using both 700 and 800 nm channels. […] To correct for background staining in the data analysis wells are treated only with secondary antibodies.
(§2) For data analysis the mean background signal from channel 700 nm and 800 nm are subtracted from each signal in channel 700 nm and 800 nm, respectively.
(§3) IC50 values of each compound are determined by plotting the normalized pPBK S473 and pS6 S235/S236 signals, respectively, versus the compound concentrations (in logarithmic scale) and then by fitting a sigmoidal dose-response curve with variable slope to the data using GraphPad™ Prism.

[2] = system: pS6 S235/S236 in A2058 cells; assay: In-cell Western blot, pS6 S235/S236; assay type: cell-based; conditions: treated for 1 hour, normalized to α-tubulin
Procedure: as §1, §2, §3

[3] = system: female NMRI mice, nonepileptic (sham-SE) and epileptic (pilo-SE); assay: Maximal electroshock seizure threshold test (MEST); assay type: in vivo, mouse; conditions: for CC50 / threshold increase: Phenobarbital; for increase of the seizure threshold in MEST: 5 mg/kg rapamycin; for increase of the threshold: rapamycin after intraperitoneal injections
Procedure: A total of 166 adult female NMRI mice were used obtained from Charles River (Sulzfeld, Germany) at a weight range of 21-25 g (mice). Animals were kept under the following conditions: Housing: Animals were housed in groups of max. 8 mice under controlled conditions (temperature: 22±1° C.; humidity: 50% 60%/), under a 12-h light-dark cycle (lights on at 6:00 a.m.). Feeding: Standard laboratory chow (Altromin 1324 standard diet, Altromin Spezialfutter GmbH, Lage, Germany) was provided ad libitum. Drinking water: Tap water was provided ad libitum.
The MEST determines a population seizure threshold in groups of ˜20 animals and not the threshold for an individual animal. In the present study, the MEST was determined by a staircase procedure as previously described. A stimulator (BMT Medizintechnik, Berlin, Germany) that delivered a constant current (adjustable from 1-200 mA regardless of the impedance of the animal) with sinusoidal pulses (50/sec) for 0.2 sec was used.
Current administration was performed via bilateral transcorneal stimulation (using copper electrodes). Before transcorneal stimulation, a drop of tetracaine solution (2%) was administered to the eyes of the mouse for local anesthesia. Two minutes later, the mouse was restrained by hand to press the copper electrodes on both corneas while the stimulus was applied by stepping on a foot pedal switch connected with the stimulator. Electrodes were covered with soft leather and soaked with saline before each current application. […] The first stimulation was started with a current near to the control threshold.
3 (HCl): 40/100 mg in 10 ml (Suspension; 5% PEG 400 and 2% Tween 80, HPBCD (10%6)) • Cpd. 8 (HCl): 12.5/25 mg in 10 ml (5% PEG 400 and 2% Tween 80, HPBCD (10%))
Statistical analysis were calculated using Student's t-test. All tests were used two-sided; a P<0.05 was considered significant.
We performed no special tests for the determination of adverse effects. Mice were observed about 30 min after injection in their home cages for obvious sedation or reduction of wellbeing. Five minutes before electrical stimulation mice were again observed in their home cages and two minutes before stimulation during handling procedure for treatment with local anaesthesia. Every obvious variation from normal behavior was noted. Only phenobarbital induced noticeable sedation which lasted for more than 60 min. All other test drugs (including vehicle solutions) were tolerated without any obvious adverse effects.

[4] = 50 mg/kg Levetiracetam i.p., pretreatment 1 h

| SMILES | IC50 ([1]; Homo sapiens, A2058, 1 h) | IC50 ([2]; Homo sapiens, A2058, 1 h) | IC50 ([1]; Homo sapiens) | IC50 ([2]; Homo sapiens) | also measured |
| --- | --- | --- | --- | --- | --- |
| CC[C@@H]1COCCN1c1nc(-c2cnc(N)cc2C(F)F)nc(N2CCOC[C@H]2CC)n1 [Compound 54, 5-[4,6-bis[(3R)-3-ethylmorpholin-4-yl]-1,3,5-triazin-2-yl]-4-(difluoromethyl)pyridin-2-amine] | 354 nM | 209 nM |  |  |  |
| C[C@H]1COCCN1c1nc(-c2cnc(N)nc2C(F)F)nc(N2CCOCC2)n1 [Compound 9, (S)-4-(difluoromethyl)-5-(4-(3-methylmorpholino)-6-morpholino-1,3,5-triazin-2-yl)pyrimidin-2-amine] |  |  | 35 nM | 72 nM |  |
| Nc1cc(C(F)F)c(-c2nc(N3CCNCC3)nc(N3CCOCC3)n2)cn1 [Compound 12, 4-(difluoromethyl)-5-(4-morpholino-6-(piperazin-1-yl)-1,3,5-triazin-2-yl)pyridin-2-amine] |  |  |  |  | IC50 [1]: 219 nM; IC50 [2]: 407 nM |
| CCC1(c2ccccc2)C(=O)NC(=O)NC1=O [Phenobarbital, reference compound] |  |  |  |  | CC50 ([3]; epileptic mice): 26.56 mA; threshold increase ([3]; epileptic mice): 66%; CC50 ([3]; nonepileptic mice): 25.7 mA; threshold increase ([3]; nonepileptic mice): 69%; duration of noticeable sedation ([3]; mice observed in home cages after injection): more than 60 min |
| C[C@H]1COCCN1c1nc(-c2cnc(N)cc2C(F)F)cc(N2CCOCC2)n1 [Compound 31, (S)-4-(difluoromethyl)-5-(2-(3-methylmorpholino)-6-morpholinopyrimidin-4-yl)pyridin-2-amine] |  |  | 146 nM | 124 nM |  |
| CC1(C)COCCN1c1nc(-c2cnc(N)cc2C(F)F)nc(N2CCOCC2(C)C)n1 [Compound 39, 5-[4,6-bis(3,3-dimethylmorpholin-4-yl)-1,3,5-triazin-2-yl]-4-(difluoromethyl)pyridin-2-amine] | 106 nM | 47 nM |  |  |  |
| Nc1ncc(-c2nc(N3CCOCC3)nc(N3CCSCC3)n2)c(C(F)F)n1 [Compound 21, 4-(difluoromethyl)-5-(4-morpholino-6-thiomorpholino-1,3,5-triazin-2-yl)pyrimidin-2-amine] | 57 nM | 216 nM |  |  |  |
| COC[C@@H]1COCCN1c1nc(-c2cnc(N)cc2C(F)F)nc(N2CCOC[C@H]2C)n1 [Compound 46, 4-(difluoromethyl)-5-[4-[(3R)-3-(methoxymethyl)morpholin-4-yl]-6-[(3R)-3-methylmorpholin-4-yl]-1,3,5-triazin-2-yl]pyridin-2-amine] | 956 nM | 426 nM |  |  |  |
| Nc1cc(C(F)F)c(-c2nc(N3CCOCC3)nc(N3CCSCC3)n2)cn1 [Compound 20, 4-(difluoromethyl)-5-(4-morpholino-6-thiomorpholino-1,3,5-triazin-2-Yl)pyridin-2-amine] | 146 nM | 250 nM |  |  |  |
| Nc1cc(C(F)F)c(-c2nc(N3CCOCC3)cc(N3CCOCC3)n2)cn1 [Compound 18, 4-(difluoromethyl)-5-(4,6-dimorpholinopyrimidin-2-yl)pyridin-2-amine] |  | 256 nM | 243 nM |  |  |
| C[C@@H]1COCCN1c1nc(-c2cnc(N)cc2C(F)F)nc(N2CCOCC23CCC3)n1 [Compound 88, 4-(difluoromethyl)-5-[4-[(3R)-3-methylmorpholin-4-yl]-6-(8-oxa-5-azaspiro[3.5]nonan-5-yl)-1,3,5-triazin-2-yl]pyridin-2-amine] | 271 nM | 192 nM |  |  |  |
| CC[C@H]1COCCN1c1nc(-c2cnc(N)cc2C(F)F)nc(N2CCOC[C@H]2C)n1 [Compound 85, 4-(difluoromethyl)-5-[4-[(3S)-3-ethylmorpholin-4-yl]-6-[(3R)-3-methylmorpholin-4-yl]-1,3,5-triazin-2-yl]pyridin-2-amine] |  | 241 nM |  |  |  |
| CC[C@@H](C(N)=O)N1CCCC1=O [Levetiracetam, reference compound] |  |  |  |  | Threshold difference between nonepileptic and epileptic [3, 4]: −4%; Threshold difference between vehicle and drug threshold, nonepileptic [3, 4]: 21% |
| CO[C@H]1C[C@@H]2CC[C@@H](C)[C@@](O)(O2)C(=O)C(=O)N2CCCC[C@H]2C(=O)O[C@H]([C@H](C)C[C@@H]2CC[C@@H](O)[C@H](OC)C2)CC(=O)[C@H](C)/C=C(\C)[C@@H](O)[C@@H](OC)C(=O)[C@H](C)C[C@H](C)/C=C/C=C/C=C/1C [rapamycin, reference compound] |  |  |  |  | increase of the seizure threshold in MEST ([3]; epileptic mice): 5%; increase of the seizure threshold in MEST ([3]; nonepileptic mice): 13%; increase of the threshold ([3]; epileptic mice): no effect; increase of the threshold ([3]; nonepileptic mice): 20% |
| C[C@@H]1COCCN1c1nc(-c2cnc(N)cc2C(F)F)nc(N2[C@@H](C)COC[C@@H]2C)n1 [Compound 79, 4-(difluoromethyl)-5-[4-[(3S,5S)-3,5-dimethylmorpholin-4-yl]-6-[(3R)-3-methylmorpholin-4-yl]-1,3,5-triazin-2-yl]pyridin-2-amine] | 200 nM | 136 nM |  |  |  |
| C[C@H]1COCCN1c1nc(-c2cnc(N)nc2C(F)(F)F)nc(N2CCOCC2)n1 [reference compound] |  |  | 91 nM | 164 nM |  |
| C[C@H]1COCCN1c1nc(-c2cnc(N)nc2C(F)F)cc(N2CCOCC2)n1 [Compound 32, (S)-4′-(difluoromethyl)-2-(3-methylmorpholino)-6-morpholino-[4,5′-bipyrimidin]-2′-amine] |  |  | 100 nM | 387 nM |  |
| C[C@H]1COCCN1c1nc(-c2cnc(N)cc2C(F)(F)F)nc(N2CCOCC2)n1 [reference compound] |  |  | 196 nM | 90 nM |  |
| Nc1ncc(-c2nc(N3CCNCC3)nc(N3CCOCC3)n2)c(C(F)F)n1 [Compound 13, 4-(difluoromethyl)-5-(4-morpholino-6-(piperazin-1-yl)-1,3,5-triazin-2-yl)pyrimidin-2-amine] |  |  |  |  | IC50 [1]: 37 nM; IC50 [2]: 120 nM |
| CC1(C)COCCN1c1nc(-c2cnc(N)cc2C(F)F)nc(N2CCOCC2)n1 [Compound 42, 4-(difluoromethyl)-5-[4-(3,3-dimethylmorpholin-4-yl)-6-morpholino-1,3,5-triazin-2-yl]pyridin-2-amine] | 54 nM | 45 nM |  |  |  |
| Nc1cc(C(F)F)c(-c2cc(N3CCOCC3)nc(N3CCOCC3)n2)cn1 [Compound 16, 4-(difluoromethyl)-5-(2,6-dimorpholinopyrimidin-4-yl)pyridin-2-amine] |  | 184 nM | 207 nM |  |  |
| C[C@@H]1COC[C@H](C)N1c1nc(-c2cnc(N)cc2C(F)F)nc(N2[C@H](C)COC[C@@H]2C)n1 [Compound 40, 5-[4,6-bis[(3R,5S)-3,5-dimethylmorpholin-4-yl]-1,3,5-triazin-2-yl]-4-(difluoromethyl)pyridin-2-amine] |  |  | 252 nM | 160 nM |  |
| Nc1ncc(-c2cc(N3CCOCC3)nc(N3CCOCC3)n2)c(C(F)F)n1 [Compound 17, 4′-(difluoromethyl)-2,6-dimorpholino-[4,5′-bipyrimidin]-2′-amine] |  | 149 nM |  |  |  |
| C[C@@H]1COCCN1c1nc(-c2cnc(N)cc2C(F)F)nc(N2CCOC[C@H]2C)n1 [Compound 41, 5-[4,6-bis[(3R)-3-methylmorpholin-4-yl]-1,3,5-triazin-2-yl]-4-(difluoromethyl)pyridin-2-amine] |  |  | 436 nM | 261 nM |  |
| C[C@@H]1COCCN1c1nc(-c2cnc(N)cc2C(F)F)nc(N2C3COCC2C3)n1 [Compound 50, 4-(difluoromethyl)-5-[4-[(3R)-3-methylmorpholin-4-yl]-6-(3-oxa-6-azabicyclo[3.1.1]heptan-6-yl)-1,3,5-triazin-2-yl]pyridin-2-amine] | 1560 nM | 407 nM |  |  |  |
| Nc1cc(C(F)(F)F)c(-c2nc(N3CCOCC3)cc(N3CCOCC3)n2)cn1 [reference compound] |  | 665 nM | 555 nM |  |  |
| C[C@H]1COC[C@H](C)N1c1nc(-c2cnc(N)cc2C(F)F)nc(N2[C@@H](C)COC[C@@H]2C)n1 [Compound 83, 5-[4,6-bis[(3S,5S)-3,5-dimethylmorpholin-4-yl]-1,3,5-triazin-2-yl]-4-(difluoromethyl)pyridin-2-amine] |  |  | 379 nM | 294 nM |  |
| C[C@H]1COCCN1c1cc(-c2cnc(N)cc2C(F)F)nc(N2CCOCC2)n1 [Compound 27, (S)-4-(difluoromethyl)-5-(6-(3-methylmorpholino)-2-morpholinopyrimidin-4-yl)pyridin-2-amine] |  |  | 614 nM | 766 nM |  |
| CC[C@@H]1COCCN1c1nc(-c2cnc(N)cc2C(F)F)nc(N2CCOC[C@H]2C)n1 [Compound 86, 4-(difluoromethyl)-5-[4-[(3R)-3-ethylmorpholin-4-yl]-6-[(3R)-3-methylmorpholin-4-yl]-1,3,5-triazin-2-yl]pyridin-2-amine] | 231 nM |  |  |  |  |
